Drawing on PubChem BioAssay AID1259411 (Chemical Carcinogenesis Research Information System (CCRIS), 2018), this text covers carcinogen call for six compounds.

The data set deals with rodent carcinogenicity bioassays, tumor incidence. The experiment in a line: CCRIS carcinogenicity studies. Particulars: Dose: 0, Dose: 0. A digest of the protocol:
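Archive of carcinogenicity, mutagenicity, tumor promotion and tumor inhibition results drawn from journals, NCI reports and other sources, expert-reviewed; covers 1985-2011 and is no longer updated.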

Molecules are shown by their SMILES. The source made the active and inactive calls. How the calls were made is not given here.

On to `CN(C)c1ccccc1`, for which the carcinogen call by setting is: (Species: MOUSE, Strain/Sex: B6C3F1/FEMALE, Route: GAVAGE, 15, 30 MG/KG IN CORN OIL FOR 103 WK (STUDY DURATION: 105 WK), 15, 30 MG/KG IN CORN OIL FOR 103 WK (STUDY DURATION: 105 WK), Tumor Site: Type of Lesion: FORESTOMACH: SQUAMOUS CELL PAPILLOMA) “equivocal”; (Species: MOUSE, Strain/Sex: B6C3F1/MALE, Route: GAVAGE, 15, 30 MG/KG IN CORN OIL FOR 103 WK (STUDY DURATION: 105 WK), 15, 30 MG/KG IN CORN OIL FOR 103 WK (STUDY DURATION: 105 WK)) “inactive; negative”; (Species: RAT, Strain/Sex: F344/FEMALE, Route: GAVAGE, 3, 30 MG/KG IN CORN OIL 5 D/WK FOR 103 WK (STUDY DURATION: 105 WK), 3, 30 MG/KG IN CORN OIL 5 D/WK FOR 103 WK (STUDY DURATION: 105 WK)) “inactive; negative”; (Species: RAT, Strain/Sex: F344/MALE, Route: GAVAGE, 3, 30 MG/KG IN CORN OIL 5 D/WK FOR 103 WK (STUDY DURATION: 105 WK), 3, 30 MG/KG IN CORN OIL 5 D/WK FOR 103 WK (STUDY DURATION: 105 WK), Tumor Site: Type of Lesion: SPLEEN: SARCOMA, SARCOMA OR OSTEOSARCOMA) “active; positive”.

For the compound `CCCCC(CC)COP(=O)(OCC(CC)CCCC)OCC(CC)CCCC` (stereo not drawn), the carcinogen call runs as follows: (Species: MOUSE, Strain/Sex: B6C3F1/FEMALE, Route: GAVAGE, 500, 1000 MG/KG IN CORN OIL 1/D 5 D/WK FOR 102-104 WK (STUDY DURATION: 102-104 WK), 500, 1000 MG/KG IN CORN OIL 1/D 5 D/WK FOR 102-104 WK (STUDY DURATION: 102-104 WK), Tumor Site: Type of Lesion: LIVER: CARCINOMA, CARCINOMA OR ADENOMA) “active; positive”; (Species: MOUSE, Strain/Sex: B6C3F1/FEMALE, Route: GAVAGE, 500, 1000 MG/KG IN CORN OIL 5/WK FOR 103 WK (STUDY DURATION: 104 WK), 500, 1000 MG/KG IN CORN OIL 5/WK FOR 103 WK (STUDY DURATION: 104 WK), Tumor Site: Type of Lesion: LIVER: ADENOMA, CARCINOMA) “active; positive”; (Species: MOUSE, Strain/Sex: B6C3F1/MALE, Route: GAVAGE, 500, 1000 MG/KG IN CORN OIL 1/D 5 D/WK FOR 102-104 WK (STUDY DURATION: 102-104 WK), 500, 1000 MG/KG IN CORN OIL 1/D 5 D/WK FOR 102-104 WK (STUDY DURATION: 102-104 WK)) “inactive; negative”; (Species: MOUSE, Strain/Sex: B6C3F1/MALE, Route: GAVAGE, 500, 1000 MG/KG IN CORN OIL 5/WK FOR 103 WK (STUDY DURATION: 104 WK), 500, 1000 MG/KG IN CORN OIL 5/WK FOR 103 WK (STUDY DURATION: 104 WK)) “inactive; negative”; (Species: RAT, Strain/Sex: F344/FEMALE, Route: GAVAGE, 1000, 2000 MG/KG IN CORN OIL 5/WK FOR 103 WK (STUDY DURATION: 103 WK), 1000, 2000 MG/KG IN CORN OIL 5/WK FOR 103 WK (STUDY DURATION: 103 WK)) “inactive; negative”; (Species: RAT, Strain/Sex: F344/FEMALE, Route: GAVAGE, 1000, 2000 MG/KG IN CORN OIL 5 D/WK FOR 102-104 WK (STUDY DURATION: 102-104 WK), 1000, 2000 MG/KG IN CORN OIL 5 D/WK FOR 102-104 WK (STUDY DURATION: 102-104 WK)) “inactive; negative”. In addition, the carcinogen call by setting is: (Species: RAT, Strain/Sex: F344/MALE, Route: GAVAGE, 2000, 4000 MG/KG IN CORN OIL 5/WK FOR 103 WK (STUDY DURATION: 104 WK), 2000, 4000 MG/KG IN CORN OIL 5/WK FOR 103 WK (STUDY DURATION: 104 WK), Tumor Site: Type of Lesion: ADRENAL GLAND: PHEOCHROMOCYTOMA) “equivocal”; (Species: RAT, Strain/Sex: F344/MALE, Route: GAVAGE, 2000, 4000 MG/KG IN CORN OIL 5 D/WK FOR 102-104 WK (STUDY DURATION: 102-104 WK), 2000, 4000 MG/KG IN CORN OIL 5 D/WK FOR 102-104 WK (STUDY DURATION: 102-104 WK)) “inactive; negative”.

On to `CN(C)CCOC(c1ccccc1)c1ccccc1`, for which the carcinogen call (Species: MOUSE, Strain/Sex: B6C3F1/FEMALE, Route: ORAL, 156, 313 PPM IN FEED FOR 103 WK (STUDY DURATION: 106 WK), 156, 313 PPM IN FEED FOR 103 WK (STUDY DURATION: 106 WK)) was “inactive; negative”; the carcinogen call (Species: MOUSE, Strain/Sex: B6C3F1/MALE, Route: ORAL, 156, 313 PPM IN FEED FOR 105 WK (STUDY DURATION: 106 WK), 156, 313 PPM IN FEED FOR 105 WK (STUDY DURATION: 106 WK)) is “inactive; negative”; the carcinogen call (Species: RAT, Strain/Sex: F344/FEMALE, Route: ORAL, 156, 313 PPM IN FEED FOR 103 WK (STUDY DURATION: 106 WK), 156, 313 PPM IN FEED FOR 103 WK (STUDY DURATION: 106 WK), Tumor Site: Type of Lesion: PITUITARY GLAND: ADENOMA) is reported as “equivocal”; the carcinogen call (Species: RAT, Strain/Sex: F344/FEMALE, Route: ORAL, 2000 PPM IN DIET FOR 106 WK (STUDY DURATION: 130 WK)) is “inactive; negative”; the carcinogen call (Species: RAT, Strain/Sex: F344/MALE, Route: ORAL, 313, 625 PPM IN FEED FOR 103 WK (STUDY DURATION: 106 WK), 313, 625 PPM IN FEED FOR 103 WK (STUDY DURATION: 106 WK), Tumor Site: Type of Lesion: BRAIN: ASTROCYTOMA OR GLIOMA, LUNG: ALVEOLAR/BRONCHIOLAR ADENOMA OR CARCINOMA) is recorded as “equivocal”; the carcinogen call (Species: RAT, Strain/Sex: F344/MALE, Route: ORAL, 2000 PPM IN DIET FOR 106 WK (STUDY DURATION: 130 WK)) was “inactive; negative”.

On to `CCCCCCCCS(=O)C(C)Cc1ccc2c(c1)OCO2` (stereo not drawn), for which the carcinogen call was “inactive; negative” (Species: MOUSE, Strain/Sex: B6C3F1/FEMALE, Route: ORAL, 295, 754 PPM IN DIET, TWA, 295, 754 PPM IN DIET, TWA); “active; positive” (Species: MOUSE, Strain/Sex: B6C3F1/MALE, Route: ORAL, 350, 700 PPM IN DIET, 350, 700 PPM IN DIET, Tumor Site: Type of Lesion: LIVER: HEPATOCELLULAR CARCINOMA); “inactive; negative” (Species: RAT, Strain/Sex: F344/FEMALE, Route: ORAL, 3000, 6000 PPM IN DIET, 3000, 6000 PPM IN DIET); “inactive; negative” (Species: RAT, Strain/Sex: F344/MALE, Route: ORAL, 1500, 3000 PPM IN DIET, 1500, 3000 PPM IN DIET).

In the case of `CC(=O)OCN(N=O)c1ccccc1`, the carcinogen call (Species: HAMSTER, Strain/Sex: SYRIAN/FEMALE, Route: SUBCUTANEOUS, 1.56, 3.13 MG/KG/WK IN OLIVE OIL FOR LIFE (STUDY DURATION: 60 WK), 1.56, 3.13 MG/KG/WK IN OLIVE OIL FOR LIFE (STUDY DURATION: 60 WK), Tumor Site: Type of Lesion: INJECTION SITE: TUMOR) is “active; positive”; the carcinogen call (Species: HAMSTER, Strain/Sex: SYRIAN/FEMALE, Route: SUBCUTANEOUS, 6.25, 12.5 MG/KG/WK IN OLIVE OIL FOR 4 WK (STUDY DURATION: 60 WK), 6.25, 12.5 MG/KG/WK IN OLIVE OIL FOR 4 WK (STUDY DURATION: 60 WK)) was “inactive; negative”; the carcinogen call (Species: HAMSTER, Strain/Sex: SYRIAN/MALE, Route: SUBCUTANEOUS, 1.56, 3.13 MG/KG/WK IN OLIVE OIL FOR LIFE (STUDY DURATION: 60 WK), 1.56, 3.13 MG/KG/WK IN OLIVE OIL FOR LIFE (STUDY DURATION: 60 WK)) was “inactive; negative”; the carcinogen call (Species: HAMSTER, Strain/Sex: SYRIAN/MALE, Route: SUBCUTANEOUS, 6.25, 12.5 MG/KG/WK IN OLIVE OIL FOR 4 WK (STUDY DURATION: 60 WK), 6.25, 12.5 MG/KG/WK IN OLIVE OIL FOR 4 WK (STUDY DURATION: 60 WK)) was “inactive; negative”.

For `Cc1c([N+](=O)[O-])c(C)c([N+](=O)[O-])c(C(C)(C)C)c1[N+](=O)[O-]`, the carcinogen call by setting is: (Species: MOUSE, Strain/Sex: B6C3F1/FEMALE, Route: ORAL, 0.075, 0.15% IN DIET FOR 80 WK (STUDY DURATION: 80 WK), 0.075, 0.15% IN DIET FOR 80 WK (STUDY DURATION: 80 WK), Tumor Site: Type of Lesion: LIVER: ADENOMA) “active; positive”; (Species: MOUSE, Strain/Sex: B6C3F1/MALE, Route: ORAL, 0.075, 0.15% IN DIET FOR 80 WK (STUDY DURATION: 80 WK), 0.075, 0.15% IN DIET FOR 80 WK (STUDY DURATION: 80 WK), Tumor Site: Type of Lesion: LIVER: ADENOMA, CARCINOMA, HARDERIAN GLAND: ADENOMA) “active; positive”.
